{"source": "patent US9566342B2", "about": "“Compounds for treatment of heart failure” (SOLVOTRIN INNOVATIONS LIMITED, priority 2010, dated 2017)", "key": {"human colon cancer cells": {"tested_on": "human colon cancer cells", "assay": "Colon cancer cell invasiveness, in vitro model", "type": "cell-based", "conditions": "low dose, FIG. 10"}, "MMP-9 [1]": {"biological_target": "T1, MMP-9 (Homo sapiens, UniProt P14780)", "T1 sequence (P14780 94-707)": "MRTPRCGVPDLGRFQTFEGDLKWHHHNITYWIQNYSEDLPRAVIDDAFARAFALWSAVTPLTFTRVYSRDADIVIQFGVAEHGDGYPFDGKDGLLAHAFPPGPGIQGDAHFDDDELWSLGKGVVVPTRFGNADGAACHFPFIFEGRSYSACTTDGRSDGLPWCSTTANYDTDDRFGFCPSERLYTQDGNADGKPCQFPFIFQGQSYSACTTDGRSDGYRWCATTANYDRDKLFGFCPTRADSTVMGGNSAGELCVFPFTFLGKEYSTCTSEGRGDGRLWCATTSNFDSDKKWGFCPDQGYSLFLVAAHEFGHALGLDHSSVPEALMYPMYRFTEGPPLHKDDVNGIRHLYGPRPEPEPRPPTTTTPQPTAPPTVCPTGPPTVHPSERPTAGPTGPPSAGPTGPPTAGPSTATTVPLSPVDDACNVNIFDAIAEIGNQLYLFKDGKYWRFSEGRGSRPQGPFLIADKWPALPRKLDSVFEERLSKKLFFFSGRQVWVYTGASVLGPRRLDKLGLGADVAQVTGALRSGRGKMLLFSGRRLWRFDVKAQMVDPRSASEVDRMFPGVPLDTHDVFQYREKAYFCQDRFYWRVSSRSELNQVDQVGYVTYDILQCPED", "assay": "Direct inhibition of recombinant MMP-9, fluorogenic substrate", "type": "biochemical", "set-up": "purchased R&D Systems, Ireland", "conditions": "100 μM; read-out: inhibition of recombinant human MMP-9"}, "[2]": {"conditions": "cancer patients, Phase I, cited from earlier work"}, "MMP-8": {"biological_target": "MMP-8 (Homo sapiens, UniProt P22894)", "sequence (P22894 101-467, species assumed)": "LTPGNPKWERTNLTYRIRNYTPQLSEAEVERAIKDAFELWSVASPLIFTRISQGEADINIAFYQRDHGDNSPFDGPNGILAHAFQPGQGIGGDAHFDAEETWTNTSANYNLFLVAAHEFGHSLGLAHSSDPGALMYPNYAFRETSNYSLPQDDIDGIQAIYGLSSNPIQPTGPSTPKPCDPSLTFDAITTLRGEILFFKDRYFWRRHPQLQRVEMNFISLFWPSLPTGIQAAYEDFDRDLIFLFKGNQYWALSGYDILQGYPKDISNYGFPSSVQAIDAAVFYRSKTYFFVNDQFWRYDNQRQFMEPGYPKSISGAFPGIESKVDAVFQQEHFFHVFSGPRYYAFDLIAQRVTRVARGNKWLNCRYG", "assay": "Direct enzyme inhibition, MMP-8", "type": "biochemical", "conditions": "100 μM"}, "MMP-9 [3]": {"tested_on": "MMP-9", "assay": "PMA-stimulated CaCo2 cells, zymography of media, MMP-9", "type": "cell-based", "conditions": "CaCo2 cells, PMA, 150 uM"}, "MMP-1": {"biological_target": "T2, MMP-1 (Homo sapiens, UniProt P03956)", "T2 sequence (P03956 100-469)": "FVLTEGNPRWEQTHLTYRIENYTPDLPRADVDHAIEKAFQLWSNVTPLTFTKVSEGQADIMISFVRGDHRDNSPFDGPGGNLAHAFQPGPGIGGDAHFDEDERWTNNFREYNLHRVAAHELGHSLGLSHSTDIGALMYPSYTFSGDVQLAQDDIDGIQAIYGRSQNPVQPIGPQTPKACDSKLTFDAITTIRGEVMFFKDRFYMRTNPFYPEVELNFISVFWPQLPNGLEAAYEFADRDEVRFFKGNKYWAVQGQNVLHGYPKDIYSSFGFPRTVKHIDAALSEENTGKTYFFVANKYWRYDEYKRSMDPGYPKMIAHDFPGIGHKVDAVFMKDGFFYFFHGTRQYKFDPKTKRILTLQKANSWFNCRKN", "assay": "Direct enzyme inhibition, MMP-1", "type": "biochemical", "conditions": "100 μM"}, "[4]": {"assay": "Plasma doxycycline and nitrite/nitrate (NOx) in non-human primates", "type": "in vivo, cynomolgus monkeys", "conditions": "cynomolgus monkey, po, 4.8 mg/kg doxycycline hyclate, day 3 of dosing, base equivalents, read-out: Maximum plasma doxycycline concentration (Cmax)"}, "MMP-2 [5]": {"biological_target": "T3, MMP-2 (Homo sapiens, UniProt P08253)", "T3 sequence (P08253 110-660)": "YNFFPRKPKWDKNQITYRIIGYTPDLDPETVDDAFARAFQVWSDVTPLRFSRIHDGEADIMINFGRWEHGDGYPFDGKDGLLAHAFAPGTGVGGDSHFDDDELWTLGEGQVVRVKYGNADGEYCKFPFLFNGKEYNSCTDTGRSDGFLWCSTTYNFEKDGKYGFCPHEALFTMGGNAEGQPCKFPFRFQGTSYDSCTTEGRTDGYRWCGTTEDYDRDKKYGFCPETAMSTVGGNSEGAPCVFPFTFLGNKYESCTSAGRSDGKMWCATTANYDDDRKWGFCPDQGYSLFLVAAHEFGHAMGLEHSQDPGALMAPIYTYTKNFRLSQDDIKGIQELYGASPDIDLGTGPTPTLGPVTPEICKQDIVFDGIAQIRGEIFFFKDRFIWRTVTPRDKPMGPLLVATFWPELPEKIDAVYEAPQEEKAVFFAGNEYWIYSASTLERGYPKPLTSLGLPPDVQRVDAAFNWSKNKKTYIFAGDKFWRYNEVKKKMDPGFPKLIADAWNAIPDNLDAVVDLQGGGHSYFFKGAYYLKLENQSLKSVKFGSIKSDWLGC", "assay": "Direct inhibition of recombinant MMP-2, fluorogenic substrate", "type": "biochemical", "set-up": "purchased R&D Systems, Ireland", "conditions": "100 μM; read-out: inhibition of recombinant human MMP-2"}, "[6]": {"assay": "Blood pressure in non-human primates", "conditions": "cynomolgus monkeys, over dosing period"}, "[7]": {"tested_on": "Human Peripheral Blood mononuclear cells (PBMC) stimulated with TNF-α", "assay": "MMPs, TIMP-1 and inflammatory markers in supernatants of PBMC stimulated with TNF-α", "type": "cell-based"}, "MMP-2 [8]": {"tested_on": "MMP-2", "assay": "PMA stimulated breast cancer cell model (HT1080 cells), pro-MMP-2 / MMP-2", "type": "cell-based", "conditions": "HT1080 cells, PMA"}, "MMP-9 mRNA": {"tested_on": "MMP-9 mRNA", "assay": "TNFα treated human cardiac fibroblasts, MMP-9 transcription (QPCR)", "type": "cell-based", "conditions": "HCF"}, "MMP-2 mRNA": {"tested_on": "MMP-2 mRNA", "assay": "TNFα treated human cardiac fibroblasts, MMP-2 transcription (QPCR)", "type": "cell-based", "conditions": "HCF, 10 ng/mL TNFα 72 hours, 75 or 150 μM"}, "MMP-2 [9]": {"tested_on": "MMP-2", "assay": "PMA-stimulated CaCo2 cells, zymography of media, MMP-2", "type": "cell-based", "conditions": "150 uM"}, "MMP-9 [10]": {"tested_on": "MMP-9", "assay": "Total MMP-9 levels on repeated oral administration in non-human primates", "type": "in vivo, cynomolgus monkeys"}, "MMP-13": {"biological_target": "MMP-13 (Homo sapiens, UniProt P45452)", "assay": "Direct enzyme inhibition, MMP-13", "type": "biochemical", "conditions": "100 μM"}, "MMP-2 [11]": {"biological_target": "T3, MMP-2", "assay": "Model of direct enzyme inhibition, MMP-2 (IC50)", "type": "biochemical"}, "MMP-9 [12]": {"biological_target": "T1, MMP-9", "assay": "Model of direct enzyme inhibition, MMP-9 (IC50)", "type": "biochemical"}, "MMP-9 [13]": {"tested_on": "MMP-9", "assay": "PMA stimulated fibrosarcoma cell model (HT1080 cells), MMP-9", "type": "cell-based", "conditions": "100 micromolar"}, "[14]": {"conditions": "75 μM, 24 hours, TNFα, mean ± SEM"}, "[15]": {"conditions": "150 μM, 24 hours, TNFα, mean ± SEM"}}, "note": "“And” between values parts separate entries of the source, which are not always exact repeats. Equal entries are not always repeated."}
{"compound": "C[C@H]1c2cccc(O)c2C(=O)C2=C(O)[C@]3(O)C(=O)C(C(N)=O)=C(O)[C@@H](N(C)C)[C@@H]3[C@@H](O)[C@@H]21", "note": "[Doxycycline, (4S,4aR,5S,5aR,6R,12aS)-4-(dimethylamino)-3,5,10,12,12a-pentahydroxy-6-methyl-1,11-dioxo-1,4,4a,5,5a,6,11,12a-octahydrotetracene-2-carboxamide, reference compound]", "values": [{"measurement": "colon cancer cell invasiveness", "setting": "human colon cancer cells", "result": "does not reduce colon cancer cell invasiveness"}, {"measurement": "inhibition at 100 µM", "setting": "MMP-9 [1]", "result": "33.3 ± 3.5", "unit": "%"}, {"measurement": "oral dose resulting in dose-limiting toxicity (fatigue, confusion, nausea, vomiting)", "setting": "[2]", "result": "400 mg administered twice a day"}, {"measurement": "maximum tolerated dose", "setting": "[2]; oral", "result": 300, "unit": "mg twice a day"}, {"measurement": "inhibition at 100 µM", "setting": "MMP-8", "result": "~42.7", "unit": "%"}, {"measurement": "suppression of MMP-9 activity relative to PMA positive control", "setting": "MMP-9 [3]", "result": "did not affect MMP-9 levels"}, {"measurement": "inhibition at 100 µM", "setting": "MMP-1", "result": "~12", "unit": "%"}, {"measurement": "Cmax", "setting": "[4]", "result": 5.1, "unit": "µM"}, {"measurement": "inhibition at 100 µM", "setting": "MMP-2 [5]", "result": "34 ± 3.5", "unit": "%"}, {"measurement": "diastolic blood pressure", "setting": "[6]", "result": "58.6±6.0", "unit": "mmHg"}, {"measurement": "mean systolic blood pressure", "setting": "[6]", "result": "109.7±7.1", "unit": "mmHg"}, {"measurement": "Interleukin-1β protein level in PBMC supernatant", "setting": "[7]; [14]", "result": "34.6 ± 5.8", "unit": "ng/mL"}, {"measurement": "Interleukin-4 protein level in PBMC supernatant", "setting": "[7]; [14]", "result": "9.4 ± 1.2", "unit": "ng/mL"}, {"measurement": "Interleukin-5 protein level in PBMC supernatant", "setting": "[7]; [14]", "result": "40.8 ± 9.0", "unit": "ng/mL"}, {"measurement": "Interleukin-8 protein level in PBMC supernatant", "setting": "[7]; [14]", "result": "8852 ± 2568", "unit": "ng/mL"}, {"measurement": "Interleukin-10 protein level in PBMC supernatant", "setting": "[7]; [14]", "result": "136.6 ± 74.2", "unit": "ng/mL"}, {"measurement": "Interleukin-13 protein level in PBMC supernatant", "setting": "[7]; [14]", "result": "79.6 ± 17.2", "unit": "ng/mL"}, {"measurement": "MMP-1 protein level in PBMC supernatant", "setting": "[7]; [14]", "result": "144.0 ± 80.0", "unit": "ng/mL"}, {"measurement": "MMP-2 protein level in PBMC supernatant", "setting": "[7]; [14]", "result": "61.4 ± 54.2", "unit": "ng/mL"}, {"measurement": "MMP-10 protein level in PBMC supernatant", "setting": "[7]; [14]", "result": "36.0 ± 14.0", "unit": "ng/mL"}, {"measurement": "Interleukin-1β protein level in PBMC supernatant", "setting": "[7]; [15]", "result": "30.6 ± 5.0", "unit": "ng/mL"}, {"measurement": "Interleukin-4 protein level in PBMC supernatant", "setting": "[7]; [15]", "result": "9.8 ± 0.8", "unit": "ng/mL"}, {"measurement": "Interleukin-5 protein level in PBMC supernatant", "setting": "[7]; [15]", "result": "31.2 ± 5.8", "unit": "ng/mL"}, {"measurement": "Interleukin-10 protein level in PBMC supernatant", "setting": "[7]; [15]", "result": "92.2 ± 33.8", "unit": "ng/mL"}, {"measurement": "Interleukin-13 protein level in PBMC supernatant", "setting": "[7]; [15]", "result": "80.2 ± 3.2", "unit": "ng/mL"}, {"measurement": "MMP-1 protein level in PBMC supernatant", "setting": "[7]; [15]", "result": "134 ± 48", "unit": "ng/mL"}, {"measurement": "MMP-2 protein level in PBMC supernatant", "setting": "[7]; [15]", "result": "96.8 ± 80.6", "unit": "ng/mL"}, {"measurement": "MMP-10 protein level in PBMC supernatant", "setting": "[7]; [15]", "result": "47.6 ± 15.8", "unit": "ng/mL"}, {"measurement": "IL-8 levels in TNFalpha stimulated PBMCs (admixture study, FIG. 14)", "setting": "[7]; 150 micromolar", "result": "also reduce IL-8 levels compared to controls"}, {"measurement": "conversion of pro-MMP-2 to active MMP-2 (activation of MMP-2)", "setting": "MMP-2 [8]; 100 μM", "result": "increase the conversion of available pro-MMP-2 to active MMP-2"}, {"measurement": "pro-MMP-2 production", "setting": "MMP-2 [8]; 100 micromolar", "result": "reduce pro-MMP-2 production"}, {"measurement": "MMP-9 protein levels in treated cell supernatants", "setting": "MMP-9 mRNA", "result": "below the lower limit of quantification"}, {"measurement": "TNFα induced upregulation of MMP-9 mRNA", "setting": "MMP-9 mRNA; 10 ng/mL TNFα 72 hours, 75 or 150 μM", "result": "In contrast to doxycycline hyclate, SI1004 significantly inhibited"}, {"measurement": "MMP-2 mRNA expression", "setting": "MMP-2 mRNA", "result": "no significant effects"}, {"measurement": "inhibition of MMP-2 activity relative to PMA positive control", "setting": "MMP-2 [9]", "result": 80, "unit": "%"}, {"measurement": "total plasma MMP-9, median AUC", "setting": "MMP-9 [10]; NHPs, daily orogastric gavage for 72 hours, n=6", "result": 8.7, "unit": "µg·h/mL"}, {"measurement": "change in MMP-9 from baseline to 72 hours", "setting": "MMP-9 [10]; cynomolgus monkeys, oral gavage once daily for three days, n=6 per group", "result": "MMP-9 levels increase"}, {"measurement": "inhibition at 100 µM", "setting": "MMP-13", "result": "~54", "unit": "%"}, {"measurement": "IC50", "setting": "MMP-2 [11]", "result": "~129 µM and 129 µM"}, {"measurement": "IC50", "setting": "MMP-9 [12]", "result": "~164 µM and 164 µM"}, {"measurement": "MMP-9 production", "setting": "MMP-9 [13]", "result": "reduce MMP-9 production"}]}
{"compound": "C[C@H]1c2cccc(O)c2C(=O)C2=C(O)[C@]3(O)C(=O)C(C(=O)NCN4CCC(CO[N+](=O)[O-])CC4)=C(O)[C@@H](N(C)C)[C@@H]3[C@@H](O)[C@@H]21", "note": "[Example 7, amido-N-[4-(nitrooxymethyl)piperidinomethyl]-α-6-deoxy-5-oxytetracycline]", "values": [{"measurement": "melting point", "result": "130 to 132", "unit": "°C"}]}
